From patent US12643871B2, “Aryl formamide compound containing chiral sulfur oxide or salt thereof, preparation method, herbicidal composition and use thereof” (Qingdao Kingagroot Chemical Compound Co., Ltd., priority 2019, dated 2026) come the findings set out here.

Holding throughout (assay type): in vivo
One experiment relates to Digitaria sanguinalis. In words: Weeding effect in post-emergence stage. Particulars: 250 g/ha; 2 leaf stage; 15 days after application; fresh weight control rate. The method in brief:
(§1)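 Two-leaf-stage pot plants, spray-tower application at 500/250/125/60/30/15 g/ha with methyl oleate EC synergist; fresh weight control level (0–5) read at 15 days post-treatment, three replicates averaged.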

Another experiment has as its system Abutilon theophrasti. Description: Weeding effect in post-emergence stage. Particulars: 250 g/ha; 2 leaf stage; 15 days after application; fresh weight control rate. In a few lines:
as §1

In another experiment the test system is Setaria viridis. In words: Weeding effect in post-emergence stage. The conditions noted are these: 250 g/ha; 2 leaf stage; 15 days after application; fresh weight control rate. The method in brief: as §1
The next experiment deals with Echinochloa crusgali. In words: Weeding effect in post-emergence stage. The conditions noted are these: 250 g/ha; 2 leaf stage; 15 days after application; fresh weight control rate. In a few lines:
as §1

Another experiment relates to Amaranthus retroflexus. Description: Weeding effect in post-emergence stage. The conditions noted are these: 250 g/ha; 2 leaf stage; 15 days after application; fresh weight control rate. In a few lines:
as §1

For experiment [1], the system named is key weeds such as Digitaria sanguinalis, Leptochloa chinensis. In words: Comparison experiment (post-emergence, Tables 4-7), herbicidal activity on weeds not listed separately. An excerpt:
The above growth control rates are fresh weight control rates.
Experiment on weeding effect in post-emergence stage: monocotyledonous and dicotyledonous weed seeds (Descurainia sophia, Capsella bursa-pastoris, Galium aparine, Stellaria media, Lithospermum arvense, Rorippa indica, Alopecurus aequalis, Beckmannia syzigachne, Sclerochloa dura, Phleum paniculatum, Bromus japonicus, Aegilops tauschii, Phalaris arundinacea, Amaranthus retroflexus, Chenopodiaceae, Commelina communis, Sonchus arvensis, convolvulus arvensis, Cirsium setosum, Solanum nigrum, Acalypha australis, Digitaria sanguinalis, Echinochloa crusgalli, Setaria viridis, Setaria glauca, Leptochloa chinensis, Monochoria vaginalis, Sagittaria trifolia, Scirpus juncoides, Cyperus rotundus, Cyperus iria, Cyperus difformis, Fimbristylis, Portulaca oleracea, Xanthium sibiricum, Pharbitis nil) and major crop seeds (wheat, corn, rice, soybean, cotton, oilseed rape, millet, sorghum, potato, sesame, ricinus) were placed in plastic pots filled with soil, then covered with 0.5-2 cm of soil, allowed to grow in a good greenhouse environment. After 2 weeks of sowing, the test plants were treated in the 2 leaf stage. The tested compounds of the present invention were respectively dissolved in acetone, then added with Tween 80 and 1.5 liter/ha of emulsifiable concentrate of methyl oleate as synergist, diluted with a certain amount of water to obtain a solution with a certain concentration, and sprayed with a spray tower onto the plants. After the application, the plants were cultured for 15 days in the greenhouse, and then the experimental results of the weeding were counted. The doses of the used compounds were 500, 250, 125, 60, 30, 15 g/ha, and the averages were obtained by repeating for three times.
If there is no clear marker, the post-seedling test conditions are the same as above, and the experimental results are shown in Tables 4-7.

The mark [2] stands for this setting: doses of 125, 60, 30, 15 g/ha, X replaced by other five membered rings.

With `CC[S@@+]([O-])c1c(C(F)(F)F)ccc(C(=O)Nc2nnc(C)o2)c1OC` [Compound 306], the “weeding effect in post-emergence stage, activity level (growth control rate), Digitaria sanguinalis” value (from here on “weeding effect … Digitaria sanguinalis”) in the experiment with Digitaria sanguinalis was 5 (Level 5: growth control rate is above 85%). For the same molecule, in the experiment with Abutilon theophrasti, the “weeding effect in post-emergence stage, activity level (growth control rate), Abutilon theophrasti” value (shortened to “weeding effect … Abutilon theophrasti”) is 5 (Level 5: growth control rate is above 85%). For the same molecule, the “weeding effect in post-emergence stage, activity level (growth control rate), Setaria viridis” value (“weeding effect … Setaria viridis” for short) in the experiment with Setaria viridis is recorded as 5 (Level 5: growth control rate is above 85%). For the same molecule, the “weeding effect in post-emergence stage, activity level (growth control rate), Echinochloa crusgali” value (“weeding effect … Echinochloa crusgali” for short) in the experiment with Echinochloa crusgali is recorded as 5 (Level 5: growth control rate is above 85%). Also, in the experiment with Amaranthus retroflexus, the “weeding effect in post-emergence stage, activity level (growth control rate), Amaranthus retroflexus” value (from here on “weeding effect … Amaranthus retroflexus”) was 5 (Level 5: growth control rate is above 85%). The “herbicidal activity and/or crop safety compared with the corresponding racemate or S configuration” value in experiment [1] (no dose stated) was “better herbicidal activity and/or crop safety”.
As for `CCCC[S@@+]([O-])c1c(C(F)(F)F)ccc(C(=O)Nc2nnc(C)o2)c1OC` [Compound 308], the “weeding effect … Digitaria sanguinalis” value in the experiment on Digitaria sanguinalis is reported as 5 (Level 5: growth control rate is above 85%). In addition, the “weeding effect … Abutilon theophrasti” value in the experiment with Abutilon theophrasti is given as 5 (Level 5: growth control rate is above 85%). The “weeding effect … Setaria viridis” value in the experiment on Setaria viridis is listed as 5 (Level 5: growth control rate is above 85%). Moreover, in the experiment with Echinochloa crusgali, the “weeding effect … Echinochloa crusgali” value is reported as 5 (Level 5: growth control rate is above 85%). For the same molecule, the “weeding effect … Amaranthus retroflexus” value in the experiment with Amaranthus retroflexus is reported as 5 (Level 5: growth control rate is above 85%). Moreover, the “herbicidal activity and/or crop safety compared with the corresponding racemate or S configuration” value in experiment [1] (no dose stated) is given as “better herbicidal activity and/or crop safety”.
Turning to `COc1c(C(=O)Nc2nnc(C)o2)ccc(C(F)(F)F)c1[S@+]([O-])CC1CC1` [Compound 310], the “weeding effect … Digitaria sanguinalis” value in the experiment with Digitaria sanguinalis is listed as 5 (Level 5: growth control rate is above 85%). Also, in the experiment with Abutilon theophrasti, the “weeding effect … Abutilon theophrasti” value is recorded as 5 (Level 5: growth control rate is above 85%). Moreover, the “weeding effect … Setaria viridis” value with Setaria viridis is given as 5 (Level 5: growth control rate is above 85%). In the experiment with Echinochloa crusgali, the “weeding effect … Echinochloa crusgali” value is listed as 5 (Level 5: growth control rate is above 85%). In the experiment on Amaranthus retroflexus, the “weeding effect … Amaranthus retroflexus” value was 5 (Level 5: growth control rate is above 85%). Also, the “herbicidal activity and/or crop safety compared with the corresponding racemate or S configuration” value in experiment [1] (no dose stated) is recorded as “better herbicidal activity and/or crop safety”.
Regarding `C=CC[S@@+]([O-])c1c(C(F)(F)F)ccc(C(=O)Nc2nnc(C)o2)c1OC` [Compound 311], the “weeding effect … Digitaria sanguinalis” value in the experiment on Digitaria sanguinalis is listed as 5 (Level 5: growth control rate is above 85%). For the same molecule, the “weeding effect … Abutilon theophrasti” value with Abutilon theophrasti is on record as 5 (Level 5: growth control rate is above 85%). In the experiment on Setaria viridis, the “weeding effect … Setaria viridis” value is 5 (Level 5: growth control rate is above 85%). Moreover, the “weeding effect … Echinochloa crusgali” value in the experiment on Echinochloa crusgali is 5 (Level 5: growth control rate is above 85%). Also, the “weeding effect … Amaranthus retroflexus” value in the experiment on Amaranthus retroflexus is on record as 5 (Level 5: growth control rate is above 85%). Also, in experiment [1] (no dose stated), the “herbicidal activity and/or crop safety compared with the corresponding racemate or S configuration” value is reported as “better herbicidal activity and/or crop safety”.
On to `COc1c(C(=O)Nc2nnc(C)o2)ccc(C(F)(F)F)c1[S@+]([O-])CC(C)F` (stereo partly drawn) [Compound 321], for which the “weeding effect … Digitaria sanguinalis” value in the experiment on Digitaria sanguinalis was 5 (Level 5: growth control rate is above 85%). For the same molecule, the “weeding effect … Abutilon theophrasti” value with Abutilon theophrasti is 5 (Level 5: growth control rate is above 85%). Moreover, the “weeding effect … Setaria viridis” value in the experiment with Setaria viridis is reported as 5 (Level 5: growth control rate is above 85%). For the same molecule, in the experiment on Echinochloa crusgali, the “weeding effect … Echinochloa crusgali” value is on record as 5 (Level 5: growth control rate is above 85%). In the experiment with Amaranthus retroflexus, the “weeding effect … Amaranthus retroflexus” value was 5 (Level 5: growth control rate is above 85%). Further, the “herbicidal activity and/or crop safety compared with the corresponding racemate or S configuration” value in experiment [1] (no dose stated) is reported as “better herbicidal activity and/or crop safety”.
In the case of `COC(=O)C[S@@+]([O-])c1c(C(F)(F)F)ccc(C(=O)Nc2nnc(C)o2)c1OC` [Compound 353], the “weeding effect … Echinochloa crusgali” value in the experiment with Echinochloa crusgali was 5 (Level 5: growth control rate is above 85%). In addition, in the experiment on Amaranthus retroflexus, the “weeding effect … Amaranthus retroflexus” value is 5 (Level 5: growth control rate is above 85%). Besides, in experiment [1] (no dose stated), the “herbicidal activity and/or crop safety compared with the corresponding racemate or S configuration” value is “better herbicidal activity and/or crop safety”.
On to `CCC[S@@+]([O-])c1c(C(F)(F)F)ccc(C(=O)Nc2nnnn2CC)c1F` [Compound 382], for which, in the experiment on Echinochloa crusgali, the “weeding effect … Echinochloa crusgali” value was 5 (Level 5: growth control rate is above 85%). The “weeding effect … Amaranthus retroflexus” value in the experiment with Amaranthus retroflexus was 5 (Level 5: growth control rate is above 85%). In experiment [1] (setting [2]), the “herbicidal activity and/or crop safety compared with the corresponding racemate or S configuration” value was “better herbicidal activity and/or crop safety”.
With `CSc1c(C(=O)Nc2nnc(C)o2)ccc(C(F)(F)F)c1[S@+]([O-])C(C)C` [Compound 549], the “weeding effect … Digitaria sanguinalis” value in the experiment with Digitaria sanguinalis is given as 5 (Level 5: growth control rate is above 85%). Further, the “weeding effect … Abutilon theophrasti” value in the experiment with Abutilon theophrasti is on record as 5 (Level 5: growth control rate is above 85%). Moreover, the “weeding effect … Echinochloa crusgali” value with Echinochloa crusgali is on record as 5 (Level 5: growth control rate is above 85%). In addition, the “weeding effect … Amaranthus retroflexus” value in the experiment with Amaranthus retroflexus is listed as 5 (Level 5: growth control rate is above 85%). The “herbicidal activity and/or crop safety compared with the corresponding racemate or S configuration” value in experiment [1] (dose of 120, 48, 30, 24 g/ha) was “better herbicidal activity and/or crop safety”.
Take `O=C(Nc1nnco1)c1ccc(C(F)(F)F)c([S@+]([O-])CCC(F)(F)F)c1F` [Compound 581]: the “weeding effect … Digitaria sanguinalis” value in the experiment with Digitaria sanguinalis is reported as 5 (Level 5: growth control rate is above 85%). Moreover, the “weeding effect … Abutilon theophrasti” value in the experiment with Abutilon theophrasti is 5 (Level 5: growth control rate is above 85%). Moreover, in the experiment with Setaria viridis, the “weeding effect … Setaria viridis” value was 5 (Level 5: growth control rate is above 85%). Moreover, the “weeding effect … Echinochloa crusgali” value in the experiment on Echinochloa crusgali is on record as 5 (Level 5: growth control rate is above 85%). Also, the “weeding effect … Amaranthus retroflexus” value with Amaranthus retroflexus was 5 (Level 5: growth control rate is above 85%).
Regarding `COCC[S@@+]([O-])c1c(C(F)(F)F)ccc(C(=O)Nc2nnco2)c1F` [Compound 582], in the experiment on Digitaria sanguinalis, the “weeding effect … Digitaria sanguinalis” value is given as 5 (Level 5: growth control rate is above 85%). In addition, the “weeding effect … Abutilon theophrasti” value in the experiment with Abutilon theophrasti was 5 (Level 5: growth control rate is above 85%). Further, in the experiment on Setaria viridis, the “weeding effect … Setaria viridis” value is listed as 5 (Level 5: growth control rate is above 85%). Moreover, in the experiment with Echinochloa crusgali, the “weeding effect … Echinochloa crusgali” value is 5 (Level 5: growth control rate is above 85%). In addition, the “weeding effect … Amaranthus retroflexus” value in the experiment on Amaranthus retroflexus was 5 (Level 5: growth control rate is above 85%).
Regarding `CCC[S@@+]([O-])c1c(C(F)F)ccc(C(=O)Nc2nnnn2C)c1Cl` [Compound 618], the “weeding effect … Digitaria sanguinalis” value in the experiment on Digitaria sanguinalis is on record as 5 (Level 5: growth control rate is above 85%). Further, in the experiment with Echinochloa crusgali, the “weeding effect … Echinochloa crusgali” value is given as 5 (Level 5: growth control rate is above 85%). The “weeding effect … Amaranthus retroflexus” value in the experiment on Amaranthus retroflexus is recorded as 5 (Level 5: growth control rate is above 85%). The “herbicidal activity and/or crop safety compared with the corresponding racemate or S configuration” value in experiment [1] (setting [2]) is “better herbicidal activity and/or crop safety”.
Consider `CCC[S@@+]([O-])c1c(C(F)F)ccc(C(=O)Nc2nnnn2C)c1OC` [Compound 866], for which, in the experiment on Digitaria sanguinalis, the “weeding effect … Digitaria sanguinalis” value is recorded as 5 (Level 5: growth control rate is above 85%). For the same molecule, the “weeding effect … Abutilon theophrasti” value with Abutilon theophrasti is listed as 5 (Level 5: growth control rate is above 85%). Further, in the experiment on Setaria viridis, the “weeding effect … Setaria viridis” value is 5 (Level 5: growth control rate is above 85%). In addition, in the experiment with Echinochloa crusgali, the “weeding effect … Echinochloa crusgali” value was 5 (Level 5: growth control rate is above 85%). The “weeding effect … Amaranthus retroflexus” value with Amaranthus retroflexus is on record as 5 (Level 5: growth control rate is above 85%).
